Data: patent publication US20230340011A1 (Asteroid Therapeutics, priority 2022, published 2023)
pEC50, pIC50: −log10 of the molar value.

Tests used:
[1] = biological target: LXRβ (Homo sapiens (Human), UniProt P55055); experiment: In vitro assay LXRβ: PathHunter NHR CHO cells, LXRβ / Steroid Receptor Co-activator Peptide enzyme fragment complementation; assay type: cell-based; settings: PathHunter NHR CHO cells, full-length human LXRβ and SRCP, chemiluminescent signal; read-out: LXRβ PPI
Outline: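 Enzyme fragment complementation read-out: CHO cells stably expressing ProLink-tagged full-length human LXRβ plus nuclear enzyme acceptor–SRCP fusion, seeded and held overnight at 37° C. Medium with charcoal-dextran filtered serum; final vehicle 1%. Chemiluminescence measured after signal generation.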

[2] = biological target: SREBP-2 (Homo sapiens (Human), UniProt Q12772); experiment: In vitro assay SREBP-2: PathHunter U2OS SREBP-2 Nuclear Translocation Cell Line, U18666A-stimulated; assay type: cell-based; settings: PathHunter U2OS SREBP-2 nuclear translocation cells, U18666A 10 μM, overnight (16 hours)

LXRβ, sequence (P55055 whole entry, the tested form may be a part): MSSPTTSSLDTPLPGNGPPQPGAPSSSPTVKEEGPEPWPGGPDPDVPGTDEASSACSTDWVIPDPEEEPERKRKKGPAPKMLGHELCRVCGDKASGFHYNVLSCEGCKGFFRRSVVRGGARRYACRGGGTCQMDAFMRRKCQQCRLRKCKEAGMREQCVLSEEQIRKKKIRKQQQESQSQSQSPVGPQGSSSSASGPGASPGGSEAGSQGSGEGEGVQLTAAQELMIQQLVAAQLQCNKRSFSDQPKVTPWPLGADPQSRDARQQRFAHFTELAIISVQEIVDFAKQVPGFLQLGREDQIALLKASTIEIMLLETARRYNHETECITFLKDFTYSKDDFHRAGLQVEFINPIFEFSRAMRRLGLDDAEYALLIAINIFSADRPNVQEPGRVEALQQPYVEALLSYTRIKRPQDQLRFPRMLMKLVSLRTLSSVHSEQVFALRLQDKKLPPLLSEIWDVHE

| Structure (SMILES) | pEC50 [1] | pIC50 [2] |
| --- | --- | --- |
| C[C@H](CCC(=O)N1CCN(C(C)(C)C)CC1)[C@H]1CC[C@H]2[C@@H]3CC=C4C[C@@H](O)CC[C@]4(C)[C@H]3CC[C@]12C [Example 557, (4R)-4-[(1R,3aS,3bS,7S,9aR,9bS,11aR)-7-hydroxy-9a,11a-dimethyl-1H,2H,3H,3aH,3bH,4H,6H,7H,8H,9H,9aH,9bH,10H,11H,11aH-cyclopenta[a]phenanthren-1-yl]-1-(4-tert-butylpiperazin-1-yl)pentan-1-one] | < 5.00 | 6.00 to 6.60 |
| COc1ccccc1C1CCN(C(=O)CC[C@@H](C)[C@H]2CC[C@H]3[C@@H]4CC=C5C[C@@H](O)CC[C@]5(C)[C@H]4CC[C@]23C)CC1 [Example 623, (R)-4-((3S,8S,9S,10R,13R,14S,17R)-3-hydroxy-10,13-dimethyl-2,3,4,7,8,9,10,11,12,13,14,15,16,17-tetradecahydro-1H-cyclopenta[a]phenanthren-17-yl)-1-(4-(2-methoxyphenyl)piperidin-1-yl)pentan-1-one] | 5.00 to 6.00 | > 6.60 |
| C[C@H](CCC(=O)N1CCN(C(=O)N(C)C)C[C@@H]1C)[C@H]1CC[C@H]2[C@@H]3CC=C4C[C@@H](O)CC[C@]4(C)[C@H]3CC[C@]12C [Example 582, (S)-4-((R)-4-((3S,8S,9S,10R,13R,14S,17R)-3-hydroxy-10,13-dimethyl-2,3,4,7,8,9,10,11,12,13,14,15,16,17-tetradecahydro-1H-cyclopenta[a]phenanthren-17-yl)pentanoyl)-N,N,3-trimethylpiperazine-1-carboxamide] | < 5.00 | > 6.60 |
| C[C@H](CCC(=O)N1CCC(C)(C(=O)N(C)C)CC1)[C@H]1CC[C@H]2[C@@H]3CC=C4C[C@@H](O)CC[C@]4(C)[C@H]3CC[C@]12C [Example 87, 1-((R)-4-((3S,8S,9S,10R,13R,14S,17R)-3-hydroxy-10,13-dimethyl-2,3,4,7,8,9,10,11,12,13,14,15,16,17-tetradecahydro-1H-cyclopenta[a]phenanthren-17-yl)pentanoyl)-N,N,4-trimethylpiperidine-4-carboxamide] | < 5.00 | 6.00 to 6.60 |
| COC(=O)N1CCC(N(C)C(=O)CC[C@@H](C)[C@H]2CC[C@H]3[C@@H]4CC=C5C[C@@H](O)CC[C@]5(C)[C@H]4CC[C@]23C)CC1 [Example 643, Methyl 4-[(4R)-4-[(1R,3aS,3bS,7S,9aR,9bS,11aR)-7-hydroxy-9a,11a-dimethyl-1H,2H,3H,3aH,3bH,4H,6H,7H,8H,9H,9aH,9bH,10H,11H,11aH-cyclopenta[a]phenanthren-1-yl]-N-methylpentanamido]piperidine-1-carboxylate] | < 5.00 | > 6.60 |
| C[C@H](CCC(=O)N1CCC(N(C)S(C)(=O)=O)CC1)[C@H]1CC[C@H]2[C@@H]3CC=C4C[C@@H](O)CC[C@]4(C)[C@H]3CC[C@]12C [Example 289, N-{1-[(4R)-4-[(1R,3aS,3bS,7S,9aR,9bS,11aR)-7-hydroxy-9a,11a-dimethyl-1H,2H,3H,3aH,3bH,4H,6H,7H,8H,9H,9aH,9bH,10H,11H,11aH-cyclopenta[a]phenanthren-1-yl]pentanoyl]piperidin-4-yl}-N-methylmethanesulfonamide] | < 5.00 | 6.00 to 6.60 |
| COc1cncc(N2CCN(C(=O)CC[C@@H](C)[C@H]3CC[C@H]4[C@@H]5CC=C6C[C@@H](O)CC[C@]6(C)[C@H]5CC[C@]34C)CC2)c1 [Example 660, (R)-4-((3S,8S,9S,10R,13R,14S,17R)-3-hydroxy-10,13-dimethyl-2,3,4,7,8,9,10,11,12,13,14,15,16,17-tetradecahydro-1H-cyclopenta[a]phenanthren-17-yl)-1-(4-(5-methoxypyridin-3-yl)piperazin-1-yl)pentan-1-one] | < 5.00 | > 6.60 |
| C[C@H](Oc1ccncc1)[C@H]1CC[C@H]2[C@@H]3CC=C4C[C@@H](O)CC[C@]4(C)[C@H]3CC[C@]12C [Example 379, (1S,3aS,3bS,7S,9aR,9bS,11aS)-9a,11a-dimethyl-1-[(1S)-1-(pyridin-4-yloxy)ethyl]-1H,2H,3H,3aH,3bH,4H,6H,7H,8H,9H,9aH,9bH,10H,11H,11aH-cyclopenta[a]phenanthren-7-ol] | < 5.00 | 6.00 to 6.60 |
| Cc1cccc(OC[C@@H](C)[C@H]2CC[C@H]3[C@@H]4CC=C5C[C@@H](O)CC[C@]5(C)[C@H]4CC[C@]23C)n1 [Example 264, (1R,3aS,3bS,7S,9aR,9bS,11aS)-9a,11a-dimethyl-1-[(2S)-1-[(6-methylpyridin-2-yl)oxy]propan-2-yl]-1H,2H,3H,3aH,3bH,4H,6H,7H,8H,9H,9aH,9bH,10H,11H,11aH-cyclopenta[a]phenanthren-7-ol] | < 5.00 | 6.00 to 6.60 |
| C[C@H](CCc1ncco1)[C@H]1CC[C@H]2[C@@H]3CC=C4C[C@@H](O)CC[C@]4(C)[C@H]3CC[C@]12C [Example 137, (3S,8S,9S,10R,13R,14S,17R)-10,13-dimethyl-17-((R)-4-(oxazol-2-yl)butan-2-yl)-2,3,4,7,8,9,10,11,12,13,14,15,16,17-tetradecahydro-1H-cyclopenta[a]phenanthren-3-ol] | 5.00 to 6.00 | 6.00 to 6.60 |
| CC(=O)N(C)[C@@H]1CCN(C(=O)CC[C@@H](C)[C@H]2CC[C@H]3[C@@H]4CC=C5C[C@@H](O)CC[C@]5(C)[C@H]4CC[C@]23C)C1 [Example 323, N—((R)-1-((R)-4-((3S,8S,9S,10R,13R,14S,17R)-3-hydroxy-10,13-dimethyl-2,3,4,7,8,9,10,11,12,13,14,15,16,17-tetradecahydro-1H-cyclopenta[a]phenanthren-17-yl)pentanoyl)pyrrolidin-3-yl)-N-methylacetamide] | < 5.00 | 6.00 to 6.60 |
| CC(=O)N1C[C@@H]2CN(C(=O)CC[C@@H](C)[C@H]3CC[C@H]4[C@@H]5CC=C6C[C@@H](O)CC[C@]6(C)[C@H]5CC[C@]34C)C[C@@H]2C1 [Example 318, (4R)-1-[(3aR,6aS)-5-acetyl-octahydropyrrolo[3,4-c]pyrrol-2-yl]-4-[(1R,3aS,3bS,7S,9aR,9bS,11aR)-7-hydroxy-9a,11a-dimethyl-1H,2H,3H,3aH,3bH,4H,6H,7H,8H,9H,9aH,9bH,10H,11H,11aH-cyclopenta[a]phenanthren-1-yl]pentan-1-one] | < 5.00 | 6.00 to 6.60 |
| C[C@H](CCC(=O)N(C)CCc1nccs1)[C@H]1CC[C@H]2[C@@H]3CC=C4C[C@@H](O)CC[C@]4(C)[C@H]3CC[C@]12C [Example 545, (R)-4-((3S,8S,9S,10R,13R,14S,17R)-3-hydroxy-10,13-dimethyl-2,3,4,7,8,9,10,11,12,13,14,15,16,17-tetradecahydro-1H-cyclopenta[a]phenanthren-17-yl)-N-methyl-N-(2-(thiazol-2-yl)ethyl)pentanamide] | 6.00 to 6.60 | 6.00 to 6.60 |
| C[C@H](CCC(=O)N1CCNC(=O)C1)[C@H]1CC[C@H]2[C@@H]3CC=C4C[C@@H](O)CC[C@]4(C)[C@H]3CC[C@]12C [Example 362, 4-[(4R)-4-[(1R,3aS,3bS,7S,9aR,9bS,11aR)-7-hydroxy-9a,11a-dimethyl-1H,2H,3H,3aH,3bH,4H,6H,7H,8H,9H,9aH,9bH,10H,11H,11aH-cyclopenta[a]phenanthren-1-yl]pentanoyl]piperazin-2-one] | < 5.00 | 6.00 to 6.60 |
| C[C@H](CCC(=O)N(C)C)[C@H]1CC[C@H]2[C@@H]3CC=C4C[C@@H](O)CC[C@]4(C)[C@H]3[C@@H](O)C[C@]12C [Example 157, (R)-4-((3S,8S,9S,10R,11S,13R,14S,17R)-3,11-dihydroxy-10,13-dimethyl-2,3,4,7,8,9,10,11,12,13,14,15,16,17-tetradecahydro-1H-cyclopenta[a]phenanthren-17-yl)-N, N-dimethylpentanamide] | 6.00 to 6.60 | 6.00 to 6.60 |
| CCC1(OC)CCCN(C(=O)CC[C@@H](C)[C@H]2CC[C@H]3[C@@H]4CC=C5C[C@@H](O)CC[C@]5(C)[C@H]4CC[C@]23C)C1 (stereo partly drawn) [Example 519, (R)-1-((R)-3-ethyl-3-methoxypiperidin-1-yl)-4-((3S,8S,9S,10R,13R,14S,17R)-3-hydroxy-10,13-dimethyl-2,3,4,7,8,9,10,11,12,13,14,15,16,17-tetradecahydro-1H-cyclopenta[a]phenanthren-17-yl)pentan-1-one] | 5.00 to 6.00 | > 6.60 |
| CCC(=O)N1CCN(C(=O)CC[C@@H](C)[C@H]2CC[C@H]3[C@@H]4CC=C5C[C@@H](O)CC[C@]5(C)[C@H]4CC[C@]23C)CC1 [Example 385, (R)-4-((3S,8S,9S,10R,13R,14S,17R)-3-hydroxy-10,13-dimethyl-2,3,4,7,8,9,10,11,12,13,14,15,16,17-tetradecahydro-1H-cyclopenta[a]phenanthren-17-yl)-1-(4-propionylpiperazin-1-yl) pentan-1-one] | < 5.00 | > 6.60 |
| CC(=O)N[C@@H]1CCN(C(=O)CC[C@@H](C)[C@H]2CC[C@H]3[C@@H]4CC=C5C[C@@H](O)CC[C@]5(C)[C@H]4CC[C@]23C)C1 [Example 324, N-[(3R)-1-[(4R)-4-[(1R,3aS,3bS,7S,9aR,9bS,11aR)-7-hydroxy-9a,11a-dimethyl-1H,2H,3H,3aH,3bH,4H,6H,7H,8H,9H,9aH,9bH,10H,11H,11aH-cyclopenta[a]phenanthren-1-yl]pentanoyl]pyrrolidin-3-yl]acetamide] | < 5.00 | 6.00 to 6.60 |
| C[C@H](CCC(=O)N1CCN(c2ccnc(N)n2)CC1)[C@H]1CC[C@H]2[C@@H]3CC=C4C[C@@H](O)CC[C@]4(C)[C@H]3CC[C@]12C [Example 560, (R)-1-(4-(2-aminopyrimidin-4-yl)piperazin-1-yl)-4-((3S,8S,9S,10R,13R,14S,17R)-3-hydroxy-10,13-dimethyl-2,3,4,7,8,9,10,11,12,13,14,15,16,17-tetradecahydro-1H-cyclopenta[a]phenanthren-17-yl)pentan-1-one] | < 5.00 | > 6.60 |
